EC50 data for 16 compounds are collected here from patent US10189816B2, “Substituted pyridines as inhibitors of human immunodeficiency virus replication” (priority 2015, dated 2019).

The assay deals with NL-RLuc virus. The assay is described as follows: Inhibition of HIV replication (NL-RLuc reporter virus in MT-2 cells, luciferase readout). The format is cell-based. The settings on record: Human immunodeficiency virus 1, MT2, 120 h. A digest of the protocol:
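MT-2 cells infected with NL4-3-derived NL-RLuc reporter virus (Renilla luciferase replacing part of nef) with serial compound dilutions, RPMI 1640 + 10% FBS; 5 days. Growth by luciferase; EC50 from median effect equation, ≥2 experiments.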

Where two headings read alike, the source gives them in different places. A value given as a limit tells only on which side of the number the result lay.

`COc1cc(C)c(CN2CCc3cc(-c4c(C)nc(C)c([C@H](OC(C)(C)C)C(=O)O)c4N4CCC(C)(C)CC4)ccc3C2)cc1C` [Compound 148, (S)-2-(tert-butoxy)-2-(4-(4,4-dimethylpiperidin-1-yl)-5-(2-(4-methoxy-2,5-dimethylbenzyl)-1,2,3,4-tetrahydroisoquinolin-6-yl)-2,6-dimethylpyridin-3-yl)acetic acid]: the EC50 (read-out: Activity) was < 0.1 µM.

For `CCOc1ccc(CN2CCc3cc(-c4c(C)nc(C)c([C@H](OC(C)(C)C)C(=O)O)c4N4CCC(C)(C)CC4)ccc3C2)cc1` [Compound 149, (S)-2-(tert-butoxy)-2-(4-(4,4-dimethylpiperidin-1-yl)-5-(2-(4-ethoxybenzyl)-1,2,3,4-tetrahydroisoquinolin-6-yl)-2,6-dimethylpyridin-3-yl)acetic acid], the EC50 (read-out: Activity) is < 0.1 µM. With `Cc1nc(C)c([C@H](OC(C)(C)C)C(=O)O)c(N2CCC(C)(C)CC2)c1-c1ccc2c(c1)CCN(Cc1ccc(OC(C)C)cc1)C2` [Compound 150, (S)-2-(tert-butoxy)-2-(4-(4,4-dimethylpiperidin-1-yl)-5-(2-(4-isopropoxybenzyl)-1,2,3,4-tetrahydroisoquinolin-6-yl)-2,6-dimethylpyridin-3-yl)acetic acid], the EC50 is < 0.1 µM (read-out: Activity) and 0.021 µM (read-out: EC50 μM).

Turning to `COc1ccc(C(F)(F)F)cc1CN1CCc2cc(-c3c(C)nc(C)c([C@H](OC(C)(C)C)C(=O)O)c3N3CCC(C)(C)CC3)ccc2C1` [Compound 151, (S)-2-(tert-butoxy)-2-(4-(4,4-dimethylpiperidin-1-yl)-5-(2-(2-methoxy-5-(trifluoromethyl)benzyl)-1,2,3,4-tetrahydroisoquinolin-6-yl)-2,6-dimethylpyridin-3-yl)acetic acid], under “read-out: Activity”, the EC50 was < 0.1 µM.

For `Cc1nc(C)c([C@H](OC(C)(C)C)C(=O)O)c(N2CCC(C)(C)CC2)c1-c1ccc2c(c1)CCN(Cc1ccccc1OC(C)C)C2` [Compound 152, (S)-2-(tert-butoxy)-2-(4-(4,4-dimethylpiperidin-1-yl)-5-(2-(2-isopropoxybenzyl)-1,2,3,4-tetrahydroisoquinolin-6-yl)-2,6-dimethylpyridin-3-yl)acetic acid], the EC50 (read-out: Activity) is < 0.1 µM. Take `Cc1nc(C)c([C@H](OC(C)(C)C)C(=O)O)c(N2CCC(C)(C)CC2)c1-c1ccc2c(c1)CCN(Cc1ccccc1OCC(C)C)C2` [Compound 153, (S)-2-(tert-butoxy)-2-(4-(4,4-dimethylpiperidin-1-yl)-5-(2-(2-isobutoxybenzyl)-1,2,3,4-tetrahydroisoquinolin-6-yl)-2,6-dimethylpyridin-3-yl)acetic acid]: the EC50 (read-out: Activity) was < 0.1 µM. For the compound `Cc1nc(C)c([C@H](OC(C)(C)C)C(=O)O)c(N2CCC(C)(C)CC2)c1-c1ccc2c(c1)CCN(Cc1cccc(OC(C)C)c1)C2` [Compound 154, (S)-2-(tert-butoxy)-2-(4-(4,4-dimethylpiperidin-1-yl)-5-(2-(3-isopropoxybenzyl)-1,2,3,4-tetrahydroisoquinolin-6-yl)-2,6-dimethylpyridin-3-yl)acetic acid], for the setting “read-out: Activity”, the EC50 was < 0.1 µM.

With `Cc1nc(C)c([C@H](OC(C)(C)C)C(=O)O)c(N2CCC(C)(C)CC2)c1-c1ccc2c(c1)CCN(Cc1ccc3c(c1)CCCO3)C2` [Compound 155, (S)-2-(tert-butoxy)-2-(5-(2-(chroman-6-ylmethyl)-1,2,3,4-tetrahydroisoquinolin-6-yl)-4-(4,4-dimethylpiperidin-1-yl)-2,6-dimethylpyridin-3-yl)acetic acid], the EC50 (read-out: Activity) is < 0.1 µM.

For `Cc1nc(C)c([C@H](OC(C)(C)C)C(=O)O)c(N2CCC(C)(C)CC2)c1-c1ccc2c(c1)CCN(Cc1ccc3c(c1)OCCO3)C2` [Compound 156, (S)-2-(tert-butoxy)-2-(5-(2-((2,3-dihydrobenzo[b][1,4]dioxin-6-yl)methyl)-1,2,3,4-tetrahydroisoquinolin-6-yl)-4-(4,4-dimethylpiperidin-1-yl)-2,6-dimethylpyridin-3-yl)acetic acid], the EC50 is, setting by setting: (read-out: Activity) < 0.1 µM; (read-out: EC50 μM) 0.008 µM. For `Cc1nc(C)c([C@H](OC(C)(C)C)C(=O)O)c(N2CCC(C)(C)CC2)c1-c1ccc2c(c1)CCN(Cc1ccc(OC(F)F)c(OC(F)F)c1)C2` [Compound 157, (S)-2-(5-(2-(3,4-bis(difluoromethoxy)benzyl)-1,2,3,4-tetrahydroisoquinolin-6-yl)-4-(4,4-dimethylpiperidin-1-yl)-2,6-dimethylpyridin-3-yl)-2-(tert-butoxy)acetic acid], the EC50 (read-out: Activity) was < 0.1 µM. Still for that read-out and setting: then `Cc1nc(C)c([C@H](OC(C)(C)C)C(=O)O)c(N2CCC(C)(C)CC2)c1-c1ccc2c(c1)CCN(Cc1cccc3c1OCCO3)C2` [Compound 158, (S)-2-(tert-butoxy)-2-(5-(2-((2,3-dihydrobenzo[b][1,4]dioxin-5-yl)methyl)-1,2,3,4-tetrahydroisoquinolin-6-yl)-4-(4,4-dimethylpiperidin-1-yl)-2,6-dimethylpyridin-3-yl)acetic acid], with < 0.1 µM; and `Cc1nc(C)c([C@H](OC(C)(C)C)C(=O)O)c(N2CCC(C)(C)CC2)c1-c1ccc2c(c1)CCN(Cc1c(F)cccc1Oc1ccccc1)C2` [Compound 159, (S)-2-(tert-butoxy)-2-(4-(4,4-dimethylpiperidin-1-yl)-5-(2-(2-fluoro-6-phenoxybenzyl)-1,2,3,4-tetrahydroisoquinolin-6-yl)-2,6-dimethylpyridin-3-yl)acetic acid], with < 0.1 µM; and `Cc1cc(OC(C)C)cc(C)c1CN1CCc2cc(-c3c(C)nc(C)c([C@H](OC(C)(C)C)C(=O)O)c3N3CCC(C)(C)CC3)ccc2C1` [Compound 160, (S)-2-(tert-butoxy)-2-(4-(4,4-dimethylpiperidin-1-yl)-5-(2-(4-isopropoxy-2,6-dimethylbenzyl)-1,2,3,4-tetrahydroisoquinolin-6-yl)-2,6-dimethylpyridin-3-yl)acetic acid], with < 0.1 µM. Take `Cc1ccc(CN2CCc3cc(-c4c(C)nc(C)c([C@H](OC(C)(C)C)C(=O)O)c4N4CCC(C)(C)CC4)ccc3C2)cc1C` [Compound 161, (S)-2-(tert-butoxy)-2-(5-(2-(3,4-dimethylbenzyl)-1,2,3,4-tetrahydroisoquinolin-6-yl)-4-(4,4-dimethylpiperidin-1-yl)-2,6-dimethylpyridin-3-yl)acetic acid]: the EC50 (read-out: Activity) is < 0.1 µM. On the same count and under the same terms, the result for `Cc1nc(C)c([C@H](OC(C)(C)C)C(=O)O)c(N2CCC(C)(C)CC2)c1-c1ccc2c(c1)CCN(Cc1ccc(C3(C#N)CC3)cc1)C2` [Compound 162, (S)-2-(tert-butoxy)-2-(5-(2-(4-(1-cyanocyclopropyl)benzyl)-1,2,3,4-tetrahydroisoquinolin-6-yl)-4-(4,4-dimethylpiperidin-1-yl)-2,6-dimethylpyridin-3-yl)acetic acid] reads < 0.1 µM.

In the case of `CCCCCCCCCOc1ccc(CN2CCc3cc(-c4c(C)nc(C)c([C@H](OC(C)(C)C)C(=O)O)c4N4CCC(C)(C)CC4)ccc3C2)cc1` [Compound 163, (S)-2-(tert-butoxy)-2-(4-(4,4-dimethylpiperidin-1-yl)-2,6-dimethyl-5-(2-(4-(nonyloxy)benzyl)-1,2,3,4-tetrahydroisoquinolin-6-yl)pyridin-3-yl)acetic acid], the EC50 was < 0.1 µM (read-out: Activity) and 0.076 µM (read-out: EC50 μM).
